Data as given in the supplement of paper PMC10307832.

Tests used:
Assay in all cases: relative viability (nuclei count vs DMSO), 5 days (fraction); higher = more cells survive
A-427 = test system: A-427
Procedure, shortened: (§1)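 A single step with final 0.05% Triton X-100, 1% formaldehyde and 1 ug/ml Hoechst fixed the cells and stained nuclei 5 days after treatment. Lung cancer cell lines in 1536-well plates had been treated by pin tool the day after seeding with one drug alone or a fixed anchor-drug dose plus five library-drug doses (not always all listed) in √10 steps, and nuclei were counted on 4× images. Relative viability is the ratio of nuclei in treated wells to nuclei in vehicle wells, taken as the median of duplicate plates.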

ABC-1 = test system: ABC-1
Procedure, shortened: as §1

CAL-12T = test system: CAL-12T
Procedure, shortened: as §1

H3255 = test system: H3255
Procedure, shortened: as §1

LCLC-97TM1 = test system: LCLC-97TM1
Procedure, shortened: as §1

LK-2 = test system: LK-2
Procedure, shortened: as §1

NCI-H1355 = test system: NCI-H1355
Procedure, shortened: as §1

NCI-H1395 = test system: NCI-H1395
Procedure, shortened: as §1

NCI-H1651 = test system: NCI-H1651
Procedure, shortened: as §1

NCI-H1666 = test system: NCI-H1666
Procedure, shortened: as §1

NCI-H1915 = test system: NCI-H1915
Procedure, shortened: as §1

NCI-H2085 = test system: NCI-H2085
Procedure, shortened: as §1

NCI-H2087 = test system: NCI-H2087
Procedure, shortened: as §1

NCI-H2228 = test system: NCI-H2228
Procedure, shortened: as §1

NCI-H322M = test system: NCI-H322M
Procedure, shortened: as §1

NCI-H358 = test system: NCI-H358
Procedure, shortened: as §1

NCI-H661 = test system: NCI-H661
Procedure, shortened: as §1

NCI-H838 = test system: NCI-H838
Procedure, shortened: as §1

PC-14 = test system: PC-14
Procedure, shortened: as §1

PC-3 [JPC-3] = test system: PC-3 [JPC-3]
Procedure, shortened: as §1

SK-MES-1 = test system: SK-MES-1
Procedure, shortened: as §1

UMC-11 = test system: UMC-11
Procedure, shortened: as §1

Cc1cnc(-c2cnc(NCCNc3ccc(C#N)cn3)nc2-c2ccc(Cl)cc2Cl)[nH]1 + O=C(CCCCCCC(=O)Nc1ccccc1)NO [Vorinostat] (partner 1 µM)
relative viability (A-427; first compound 0.08 µM): 0.868
relative viability (A-427; first compound 0.253 µM): 0.826
relative viability (A-427; first compound 0.8 µM): 0.826
relative viability (A-427; first compound 2.53 µM): 0.854
relative viability (ABC-1; first compound 0.08 µM): 1.24
relative viability (ABC-1; first compound 0.253 µM): 0.871
relative viability (ABC-1; first compound 0.8 µM): 1.06
relative viability (ABC-1; first compound 2.53 µM): 1.15
relative viability (CAL-12T; first compound 0.08 µM): 0.928
relative viability (CAL-12T; first compound 0.253 µM): 0.702
relative viability (CAL-12T; first compound 0.8 µM): 0.848
relative viability (CAL-12T; first compound 2.53 µM): 0.807
relative viability (H3255; first compound 0.08 µM): 0.599
relative viability (H3255; first compound 0.253 µM): 0.717
relative viability (H3255; first compound 0.8 µM): 0.754
relative viability (H3255; first compound 2.53 µM): 0.829
relative viability (LCLC-97TM1; first compound 0.08 µM): 0.712
relative viability (LCLC-97TM1; first compound 0.253 µM): 0.462
relative viability (LCLC-97TM1; first compound 0.8 µM): 0.515
relative viability (LCLC-97TM1; first compound 2.53 µM): 0.515
relative viability (LK-2; first compound 0.08 µM): 0.274
relative viability (LK-2; first compound 0.253 µM): 0.331
relative viability (LK-2; first compound 0.8 µM): 0.286
relative viability (LK-2; first compound 2.53 µM): 0.318
relative viability (NCI-H1355; first compound 0.08 µM): 0.632
relative viability (NCI-H1355; first compound 0.253 µM): 0.544
relative viability (NCI-H1355; first compound 0.8 µM): 0.633
relative viability (NCI-H1355; first compound 2.53 µM): 0.651
relative viability (NCI-H1395; first compound 0.08 µM): 0.847
relative viability (NCI-H1395; first compound 0.253 µM): 0.577
relative viability (NCI-H1395; first compound 0.8 µM): 0.62
relative viability (NCI-H1395; first compound 2.53 µM): 0.6
relative viability (NCI-H1651; first compound 0.08 µM): 0.539
relative viability (NCI-H1651; first compound 0.253 µM): 0.459
relative viability (NCI-H1651; first compound 0.8 µM): 0.537
relative viability (NCI-H1651; first compound 2.53 µM): 0.58
relative viability (NCI-H1666; first compound 0.08 µM): 0.899
relative viability (NCI-H1666; first compound 0.253 µM): 1.05
relative viability (NCI-H1666; first compound 0.8 µM): 0.964
relative viability (NCI-H1666; first compound 2.53 µM): 1.1
relative viability (NCI-H1915; first compound 0.08 µM): 0.532
relative viability (NCI-H1915; first compound 0.8 µM): 0.504
relative viability (NCI-H1915; first compound 2.53 µM): 0.513
relative viability (NCI-H2085; first compound 0.08 µM): 0.886
relative viability (NCI-H2085; first compound 0.253 µM): 0.769
relative viability (NCI-H2085; first compound 0.8 µM): 0.824
relative viability (NCI-H2085; first compound 2.53 µM): 0.997
relative viability (NCI-H2087; first compound 0.08 µM): 0.871
relative viability (NCI-H2087; first compound 0.8 µM): 0.514
relative viability (NCI-H2087; first compound 2.53 µM): 0.663
relative viability (NCI-H2228; first compound 0.08 µM): 0.891
relative viability (NCI-H2228; first compound 0.253 µM): 0.642
relative viability (NCI-H2228; first compound 0.8 µM): 0.668
relative viability (NCI-H2228; first compound 2.53 µM): 0.693
relative viability (NCI-H322M; first compound 0.08 µM): 0.843
relative viability (NCI-H322M; first compound 0.253 µM): 0.878
relative viability (NCI-H322M; first compound 0.8 µM): 0.874
relative viability (NCI-H322M; first compound 2.53 µM): 1.53
relative viability (NCI-H358; first compound 0.08 µM): 0.787
relative viability (NCI-H358; first compound 0.253 µM): 0.686
relative viability (NCI-H358; first compound 0.8 µM): 0.69
relative viability (NCI-H358; first compound 2.53 µM): 0.585
relative viability (NCI-H661; first compound 0.08 µM): 0.906
relative viability (NCI-H661; first compound 0.253 µM): 0.774
relative viability (NCI-H661; first compound 0.8 µM): 0.782
relative viability (NCI-H661; first compound 2.53 µM): 0.731
relative viability (NCI-H838; first compound 0.08 µM): 0.726
relative viability (NCI-H838; first compound 0.253 µM): 0.723
relative viability (NCI-H838; first compound 0.8 µM): 0.856
relative viability (NCI-H838; first compound 2.53 µM): 1.06
relative viability (PC-14; first compound 0.08 µM): 0.851
relative viability (PC-14; first compound 0.253 µM): 0.603
relative viability (PC-14; first compound 0.8 µM): 0.727
relative viability (PC-14; first compound 2.53 µM): 0.587
relative viability (PC-3 [JPC-3]; first compound 0.08 µM): 0.811
relative viability (PC-3 [JPC-3]; first compound 0.253 µM): 0.713
relative viability (PC-3 [JPC-3]; first compound 0.8 µM): 0.726
relative viability (PC-3 [JPC-3]; first compound 2.53 µM): 0.838
relative viability (SK-MES-1; first compound 0.08 µM): 1.07
relative viability (SK-MES-1; first compound 0.253 µM): 0.977
relative viability (SK-MES-1; first compound 0.8 µM): 1.19
relative viability (SK-MES-1; first compound 2.53 µM): 1.24
relative viability (UMC-11; first compound 0.08 µM): 0.403
relative viability (UMC-11; first compound 0.253 µM): 0.387
relative viability (UMC-11; first compound 0.8 µM): 0.411
relative viability (UMC-11; first compound 2.53 µM): 0.511
